# Measurements as given in patent publication US20040241194A1, “Food supplement for animals” (Phytosynthese, priority 2001, published 2004).
# What was measured:
# [1] = Influence on growth of chickens, open-label study versus monensin; type: in vivo; details: for Mean daily weight gain: composition at 1.5 kg per tonne
# Protocol: The parameters considered are the performance index and the mean daily weight gain. The composition of the invention is administered at the rate of 1.5 kg per tonne.
# [2] = Influence on growth, study on white free-range chickens; type: in vivo
# Protocol: This test is conducted under the same conditions by administering 2 kg of the composition of the invention per tonne to four batches of chickens.
structure (smiles),measurement,setting,value
"CC[C@@]1([C@@H]2O[C@@H]([C@H]3O[C@@](O)(CO)[C@H](C)C[C@@H]3C)C[C@@H]2C)CC[C@H]([C@]2(C)CC[C@]3(C[C@H](O)[C@@H](C)[C@@H]([C@@H](C)[C@@H](OC)[C@H](C)C(=O)O)O3)O2)O1 [Control, monensin]",Mean weight,[1]; Table VI batch,2.083 kg
same,Performance index,[1]; Table VI batch,87
same,Mean daily weight gain,[1]; Table VI batch,25.32 g
same,Mean weight,[1]; Table VII batch,2.169 kg
same,Performance index,[1]; Table VII batch,95
same,Mean daily weight gain,[1]; Table VII batch,26.46 g
same,Feed conversion index (quantity of feed for obtaining 1 kg of chicken),[2]; General Mean,2.979
same,Mean weight,[2]; General Mean,2.116 kg
same,Mean daily weight gain,"[2]; General Mean, composition at 2 kg per tonne",25.46 g
same,Feed conversion index (quantity of feed for obtaining 1 kg of chicken),[2]; Mean of the 1st third,2.810
same,Mean daily weight gain,[2]; Mean of the 1st third,26.30 g
same,Mean weight,[2]; Mean of the 1st third,2.265 kg
same,Feed conversion index (quantity of feed for obtaining 1 kg of chicken),[2]; Mean of the 2nd third,2.960
same,Mean daily weight gain,[2]; Mean of the 2nd third,25.48 g
same,Mean weight,[2]; Mean of the 2nd third,2.131 kg
same,Feed conversion index (quantity of feed for obtaining 1 kg of chicken),[2]; Mean of the 3rd third,3.167
same,Mean daily weight gain,[2]; Mean of the 3rd third,24.64 g
same,Mean weight,[2]; Mean of the 3rd third,2.054 kg
